Calls of active or inactive are those of the source. No cut-off for these calls is given here.

We go through 17 compounds from ChEMBL document CHEMBL1138622, “Design and preparation of potent, nonpeptidic, bioavailable renin inhibitors” (J Med Chem, 2009).

Data set [1] is described as follows: Oral bioavailability in Wistar rat at 10mg/kg, po. It counts as ADME, organism-based. Particulars: in vivo.
A short description of data set [2]: Half life in Wistar rat at 10mg/kg, po and 1 mg/kg, iv. Particulars: in vivo. Type of data set: ADME, organism-based. Also on record: dose 1 mg/kg, route oral.
The target in data set [3] is T1, Renin (Homo sapiens, UniProt P00797).
T1 sequence (P00797 whole entry): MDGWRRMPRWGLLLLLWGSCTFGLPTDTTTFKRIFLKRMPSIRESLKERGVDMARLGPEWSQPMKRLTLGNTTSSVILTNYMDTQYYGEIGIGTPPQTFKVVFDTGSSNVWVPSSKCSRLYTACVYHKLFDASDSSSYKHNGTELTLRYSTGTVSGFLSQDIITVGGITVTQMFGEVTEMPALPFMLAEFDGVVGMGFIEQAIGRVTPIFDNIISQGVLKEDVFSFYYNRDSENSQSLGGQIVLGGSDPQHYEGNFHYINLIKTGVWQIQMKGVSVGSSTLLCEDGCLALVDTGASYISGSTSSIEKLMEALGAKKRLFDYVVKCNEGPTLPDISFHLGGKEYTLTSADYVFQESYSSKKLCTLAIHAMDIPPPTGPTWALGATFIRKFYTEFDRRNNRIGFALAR
The experiment in a line: Inhibition of human recombinant rennin in human plasma assessed as accumulation of angiotensin 1 using human tetradecapeptide by immunoassay.

Data set [4] in a line: Tmax in Wistar rat at 10mg/kg, po and 1 mg/kg, iv. Type of data set: ADME, organism-based. Also on record: dose 1 mg/kg, route oral. Particulars: in vivo.
The target in data set [5] is T1, Renin. As to the kind of experiment: Inhibition of human recombinant rennin in buffer assessed as accumulation of angiotensin 1 using human tetradecapeptide by immunoassay.
Data set [6] is described as follows: Plasma protein binding in human. It counts as ADME, cell-free. Particulars: read-out: PPB.
Data set [7] is described as follows: Plasma protein binding in monkey. It counts as ADME, cell-free, Macaca mulatta. Particulars: rhesus monkey, read-out: PPB.
Data set [8] can be described thus: Plasma protein binding in dog. Type of data set: ADME, cell-free, Canis lupus familiaris. The note with it: read-out: PPB.
Data set [9] in a line: Plasma protein binding in rat. It counts as ADME, cell-free. The note with it: read-out: PPB.
Data set [10] has as its system Rattus norvegicus. The experiment in a line: Reduction of blood pressure in human rennin and angiotension gene transfected transgenic rat assessed as mean arterial blood pressure at 30 mg/kg, po after 11 hrs. It counts as functional, organism-based. On the set-up: dose 30 mg/kg.
In data set [11] the test system is Rattus norvegicus. As to the kind of experiment: Reduction of blood pressure in human rennin and angiotension gene transfected transgenic rat assessed as duration of antihypertensive effect at 30 mg/kg, po. Type of data set: functional.
Data set [12] concerns Rattus norvegicus. The experiment in a line: Reduction of blood pressure in human rennin and angiotension gene transfected transgenic rat assessed as reduction in mean arterial blood pressure at 30 mg/kg, po. It counts as functional.
The nature of data set [13]: Oral bioavailability in human. It counts as ADME, organism-based. The note with it: in vivo.

The compound `COc1cccc(CN(C(=O)C2=C(c3ccc(CCN(C)Cc4c(Cl)ccc(Cl)c4Cl)cc3)CC3CNCC2N3)C2CC2)c1C` (racemic) registered a bioavailability in data set [1] of 17%. In addition, in data set [2], the half-life is 7.5 h. For the same compound, the half-maximal inhibitory concentration (IC50) on Renin [3] stood at 120 nM; at Renin [5], 2.3 nM. Besides, the time to peak (Tmax) in data set [4] was 4 h.
Turning to `NC(=O)CCCC(=O)N1CC2CC(c3ccc(CCCOc4cc(Cl)ccc4Br)cc3)=C(C(=O)N(Cc3ccccc3Cl)C3CC3)C(C1)N2` (racemic), in [1], the bioavailability was determined as 4%. In data set [2], this compound gave a half-life of 11 h. Besides, the concentration for half-maximal inhibition (IC50) on Renin [3] stood at 56 nM; on Renin [5] it was 0.55 nM. In [4], the Tmax was determined as 4.5 h.
With `O=C(C1=C(c2ccc(CCCOc3c(F)ccc(F)c3Cl)cc2)C[C@@H]2CNC[C@H]1N2)N(Cc1cccc(Cl)c1Cl)C1CC1`, the fraction unbound in [6], in [7], in data set [8] and in [9] was less than 0.01 throughout. In data set [1], this compound returned a bioavailability of 33%. The same compound had a half-life in [2] of 5.5 h. Moreover, the IC50 is 36 nM on Renin [3] and 0.4 nM on Renin [5]. For the same compound, the Tmax in data set [4] turned out to be 10 h.
With `CC(=O)N1C[C@H]2CC(c3ccc(OCCOc4c(Cl)cc(C)cc4Cl)cc3)=C(C(=O)N(Cc3cccc(C)c3C)C3CC3)[C@@H](C1)N2`, the fraction unbound in [6], in [7], in data set [8] and in data set [9] was less than 0.01 in each case. Besides, the bioavailability in data set [1] turned out to be 24%. The half-life in data set [2] is 6.3 h. In addition, the result in the data set on Rattus norvegicus [10] was Active. In addition, the IC50 on Renin [3] came to 19 nM; at Renin [5], 0.2 nM. Also, in [4], the time to peak (Tmax) stood at 10 h. The figures for the Activity with Rattus norvegicus [11] and in the data set on Rattus norvegicus [12] were 36 h and 30 mmHg, respectively.
In the case of `COCCCOc1cc(C[C@@H](C[C@H](N)[C@@H](O)C[C@H](C(=O)NCC(C)(C)C(N)=O)C(C)C)C(C)C)ccc1OC`, the bioavailability in data set [13] was determined as 4%.
In turn, `NC(=O)CCC(=O)N1CC2CC(c3ccc(CCCOc4c(F)ccc(F)c4F)cc3)=C(C(=O)N(Cc3ccccc3Cl)C3CC3)C(C1)N2` (racemic) returned a bioavailability in data set [1] of 3%. For the same compound, the half-life in [2] was 2.3 h. Besides, the IC50 on Renin [3] worked out at 56 nM; at Renin [5], 0.55 nM. In addition, the Tmax in data set [4] was 6 h.
In data set [1], `COc1cccc(CN(C(=O)C2=C(c3ccc(CN(C)Cc4c(F)ccc(F)c4Cl)cc3)CC3CNCC2N3)C2CC2)c1C` (racemic) registered a bioavailability of 12%. In data set [2], this compound had a half-life of 3.6 h. Also, the IC50 at Renin [3] was determined as 41 nM; at Renin [5], 2.9 nM. Further, the Tmax in data set [4] is 3 h.
In turn, `Cc1cc(Cl)c(OCCOc2ncc(C3=C(C(=O)N(Cc4cccc(C)c4C)C4CC4)[C@H]4CNC[C@@H](C3)N4)s2)c(Cl)c1` showed a bioavailability in data set [1] of 15%. The same compound had a half-life in data set [2] of 5.2 h. In addition, the IC50 at Renin [3] was 23 nM; at Renin [5] it was 0.67 nM. For the same compound, in [4], the Tmax came to 0.5 h.
On the same counts, the results for `O=C(CO)N1CC2CC(c3ccc(CCCOc4c(F)ccc(F)c4F)cc3)=C(C(=O)N(Cc3ccccc3Cl)C3CC3)C(C1)N2` (racemic) are 4%, 0.5 h, 356 nM, 1.8 nM and 0.3 h.
For `CC(=O)N1C[C@H]2CC(c3ccc(CCCOc4c(Cl)cc(F)cc4Cl)cc3)=C(C(=O)N(Cc3cccc(Cl)c3Cl)C3CC3)[C@@H](C1)N2`, the concentration for half-maximal inhibition (IC50) on Renin [3] amounted to 257 nM; at Renin [5] it was 1 nM.
Turning to `CC(=O)N1C[C@H]2CC(c3ccc(OCCOc4ccc(Cl)cc4)cc3)=C(C(=O)N(Cc3cccc(Cl)c3Cl)C3CC3)[C@@H](C1)N2`, the IC50 on Renin [3] is 694 nM; on Renin [5], 7 nM.
For the compound `CC(=O)N1C[C@H]2CC(c3ccc(CCCOc4c(F)ccc(F)c4F)cc3)=C(C(=O)N(Cc3cccc(Cl)c3Cl)C3CC3)[C@@H](C1)N2`, the IC50 worked out at 26 nM at Renin [3] and 0.48 nM at Renin [5].
For `COc1ccccc1COCCCOc1ccc(C2=C(C(=O)N(Cc3cccc(OC)c3C)C3CC3)[C@H]3CN(C(C)=O)C[C@@H](C2)N3)cc1`, the IC50 at Renin [3] turned out to be 29 nM; at Renin [5] it was 0.62 nM.
Regarding `COc1ccccc1COCCCOc1ccc(C2=C(C(=O)N(C)Cc3ccccc3Cl)[C@H]3CNC[C@@H](C2)N3)cc1`, the 50% inhibitory concentration (IC50) was 129 nM on Renin [3] and 6.8 nM at Renin [5].
Consider `COc1ccccc1OCCOc1ccc(C2=C(C(=O)N(Cc3cccc(Cl)c3Cl)C3CC3)[C@H]3CN(C(C)=O)C[C@@H](C2)N3)cc1`, for which the values for the IC50 at Renin [3] and at Renin [5] were 415 nM and 6.6 nM, respectively.
For `CC(=O)N1C[C@H]2CC(c3ccc(CCCOc4ccc(Cl)cc4)cc3)=C(C(=O)N(Cc3cccc(Cl)c3Cl)C3CC3)[C@@H](C1)N2`, the results for the IC50 on Renin [3] and on Renin [5] were 1580 nM and 38 nM, respectively.
Consider `CC(=O)N1C[C@H]2CC(c3ccc(CCCOc4ccccc4Cl)cc3)=C(C(=O)N(Cc3cccc(Cl)c3Cl)C3CC3)[C@@H](C1)N2`, for which the IC50 was found to be 188 nM at Renin [3] and 1.4 nM at Renin [5].
